In one assay the test system is Rat white adipocytes. Nature of the assay: Inhibition of the differentiation of adipocytes (Oil Red O). The assay is classed as cell-based. The following applies: 100 nM test compound, 5 days, Oil Red O ABS550, control = 100%, blank = 0%, Table 3; for activity at 0.1 µM: Rattus norvegicus, Adipocyte, 120 h, read-out: Rate of Differentiation (%). The method, then: Rat white adipocytes contained in the white adipocyte culture kit purchased from HOKUDO were used. As the medium for proliferation and for differentiation-inducing, the medium contained in the white adipocyte culture kit purchased from HOKUDO was used. The cells in the present experiment were cultured in a CO2 incubator (37° C., 95% R.H., 5% CO2).
Immediately after arrival of the purchased cells, all medium for transportation was discarded and replaced with 5 ml of proliferation medium (/25 cm^2-flask) and the cells were cultured for one day. Then, a cell suspension was prepared with proliferation medium so as to be 83,000 cells/mL, and the cell suspension was plated into a type I 96-well collagen-coated microplate (SUMITOMO BAKELITE CO., ltd.) so as to be 5,000 cells/well (60 μL/well).
On the next day, all the proliferation medium was discarded and replaced with 147 μL/well of differentiation-inducing medium. Further, 1) in the group treated with the test compound, 3 μL/well of the solution, in which a test compound (100 μM) was dissolved in DMSO solution and diluted with differentiation-inducing medium by 20 times (final concentration of the test compound: 100 nM, final concentration of DMSO solution: 0.1% (v/v)), were added to the well where the cells were plated. 2) In the control group, 3 μL/well of DMSO solution that was diluted with differentiation-inducing medium by 20 times (final concentration of DMSO: 0.1% (v/v)) were added to the well where the cells were plated. Further, 3) in the blank group, 3 μL/well of DMSO solution that was diluted with differentiation-inducing medium by 20 times (final concentration: 0.1% (v/v)), was added to the blank well.
After culturing for 5 days, all differentiation-inducing medium was discarded and replaced with 60 μL of 10% (v/v) formaldehyde solution (for fixation) in each well and the cells were kept stationary for 20 min at room temperature. After this, the fixative solution was discarded and replaced with 60 μL of 0.2% (v/v) Triton X (Sigma-Aldrich Japan K. K.) solution in each well and kept stationary for 5 min at room temperature. Then all Triton X solution was discarded and replaced with 60 μL of 60% (v/v) isopropanol solution containing dissolved Oil Red O (Sigma-Aldrich Japan K. K.) so as to be 0.3%, which was adipose tissue staining solution, and the well was left stationary for 10 min at room temperature. After the adipose tissue staining solution was discarded, the well was washed twice with 60 JIL of 60% isopropanol solution. Then, 100 μL of the DMSO solution were added to each well and stirred for 5 min at room temperature, The absorbance was measured at 550 nm (ABS550) with a multi-plate reader (LabSystems), and the stained amount with Oil Red O was determined. The measured level at ABS550 in the control group was defined as 100%, while the level at ABS550 in the blank group was defined as 0%. The differentiation rate (%) of the adipocytes treated with the test compound was calculated.

A further assay relates to leptin production. Put plainly: Enhancing activity for leptin production in adipocytes (ELISA). Conditions: Rattus norvegicus, Adipocyte, leptin concentration as % of control group, read-out: Facilitating activity to produce leptin; for activity at 0.01 µM: 10 nm; for activity at 0.1 µM: 100 nm. The assay is classed as cell-based, rat. The method, then: Hanks solution was used for collection of adipose tissue. The Hanks solution was prepared by filtration of a mixed solution (pH: 7.5) of 120 mM NaCl, 4.8 mM KCl, 0.74 mM MgSO4, 0.30 mM Na2HPO4, 0.40 mM KH2PO4, 20 mM HEPES, 0.05% (w/v) glucose, 2% (w/v) BSA (Sigma-Aldrich Japan K. K., Cat. No. A7888), 0.95 mM CaCl2, 4.17 mM NaHCO3 and 1% (v/v) penicillin-streptomycin liquid (GIBCO BRL, Cat. No. 15140-122). The adipocytes were cultured in Dulbecco's modified Eagle's medium (GIBCO BRL, Cat. No. 11995-040) mixed with DMEM/F-12 (GIBCO BRL, Cat. No. 11320-033) at a ratio of 1:1, and added 0.2% (v/v) Hanks solution, 0.2 μg/L sodium selenite (GIBCO BRL, Cat. No. 13012-018), 0.002% (v/v) ethanolamine, 25 mM HEPES and 1% (v/v) penicillin-streptomycin liquid (GIBCO BRL, Cat. No. 15140-122). As many as possible of the other reagents used were special grade. In this experiment, the cells were cultured in a CO2 incubator (37° C., 95% humidity, 5% CO2).
Male Wistar Imamichi rats of 6 weeks old were sacrificed by bleeding following decapitation, and adipose tissue was removed from the epididymis and sectioned after the vessels were removed in warmed Hanks solution at 37° C. and were weighed. One (1) mL of Hanks solution containing 10 mg collagenase (Wako Pure Chemical Industries, Ltd., 034-10533) was added to the adipose tissue prepared. The solution was transferred into a tube having a volume of 50 mL, and the cells were evenly dispersed by incubation under gentle shaking at 37° C., 90 rpm, for 50 min. Then 20 mL of Hanks solution were added and filtrated through Nylon-mesh with a mesh diameter of 200 μm for removal of undigested tissue pieces. The floating adipocytes were separated from sediments and substances located in the lower layer by centrifugation at 1,000 rpm for 1 min at room temperature. The sediment and 22 mL of the low layer were pulled out with a probe, and the floating adipocytes were recovered. This procedure was repeated twice with Hanks solution and for 4 times with the culture medium. After these procedures the adipocytes were suspended in the culture medium at a volume of 60 mL per 1 g of the adipose tissue weighed previously. 100 μL of the suspended solution were plated in each well of a 96-well microplate (ASAHI TECHNO GLASS Corp.) In the group treated with the test compound, 1 μL/well of DMSO solution containing the dissolved the test compound at concentrations of 200 μM, 20 μM, 2 μM and 0.2 μM (final concentrations of the test compound: 1 μM, 100 nM, 10 nM and 1 nM, respectively) was plated in each of the well. In the control group, 1 μL/well of DMSO (final concentration: 0.1% (v/v)) was plated in each well. The plate was placed stationary in a CO2 incubator for 1 hr or longer, and the contents in the solution were equilibrated at 37° C. After they were equilibrated, the solution in each well was stirred with a magnetic stirrer in a water bath and the suspended solution maintained at 37° C. was plated into each well of the plate at 100 μL/well. After incubation of the cells for 24 hr, the suspended solution of cells was filtrated through a filter for the microplate, MultiScreen (MILLOPORE, MDV-N65). The concentration of leptin in the filtrated solution was determined with ELISA methods by using a Rat Leptin Determination Kit-IBL (Immuno-Biological Laboratories Co., Ltd., Cat. No. 17195). The facilitating activity of the compound to produce leptin was calculated from the following equation based on the concentration of leptin determined.
Facilitating Activity of the Compound to Produce Leptin (%)=(A/B)×100
A: Concentration of Leptin in the Treated Group with the Test Compound.
B: Concentration of Leptin in the Control Group.
(In general: An ELISA detects its analyte on a solid surface through an enzyme-linked reagent.)

Read-outs that look alike come from different tables or passages of the source.

As for `CC(C)(C)OC(=O)Nc1ccc2nc(NC(=O)c3cc([N+](=O)[O-])ccc3Cl)sc2c1` [Example 260, N-[(6-tert-Butoxycarbonylamino)benzothiazol-2-yl]-(2-chloro-5-nitrophenyl)carboxamide], the “Rate of Differentiation (%)” value with Rat white adipocytes stood at 84.6%.
Consider `NC(=O)NCCc1ccc(NC(=O)c2cc([N+](=O)[O-])ccc2Cl)cc1` [Example 270, N-[4-(2-Aminocarbonylaminoethyl)phenyl]-(2-chloro-5-nitrophenyl)carboxamide], for which the activity at 0.1 µM with Rat white adipocytes was 45.9%. Besides, the activity at 0.01 µM with leptin production (24 h) stood at 118%.
As for `O=C(Nc1ccccc1)Nc1ccc(-c2ccc(NC(=O)c3cc([N+](=O)[O-])ccc3Cl)cc2)cc1` [Example 242, N-[4-[4-(Phenylaminocarbonylamino)phenyl]phenyl]-(2-chloro-5-nitrophenyl)carboxamide], the values for the activity at 0.1 µM in the assay on Rat white adipocytes and in the assay on leptin production (24 h) were 57.6% and 111%, respectively.
Consider `CC(=O)Nc1nc(-c2cccc(NC(=O)c3cc([N+](=O)[O-])ccc3Cl)c2)cs1` [Example 266, N-[3-(2-Acetylaminothiazol-4-yl)phenyl]-(2-chloro-5-nitrophenyl)carboxamide], for which, in the assay on Rat white adipocytes, the activity at 0.1 µM was found to be 63.5%.
On the same count and under the same terms, the result for `CN1c2ccccc2N=C(c2ccc(NC(=O)c3cc([N+](=O)[O-])ccc3Cl)cc2)c2cc3c(cc21)C(C)(C)CCC3(C)C` [Example 240, N-[4-(5,7,7,10,10-Pentamethyl-7,8,9,10-tetrahydro-5H-5,13-diazabenzo[4,5]cyclohepta[1,2-b]naphthalen-12-yl)phenyl]-(2-chloro-5-nitrophenyl)carboxamide] reads 35.2%.
With `O=C(Nc1ccc(-c2ccc(NC(=O)c3cc([N+](=O)[O-])ccc3Cl)cc2)cc1)c1cc([N+](=O)[O-])ccc1Cl` [Example 163, 4-[4-[(2-Chloro-5-nitrophenyl)carbonylamino)phenyl]phenyl-(2-chloro-5-nitrophenyl)carboxamide], the activity at 0.1 µM in the assay on Rat white adipocytes worked out at 48%. Besides, in the assay with leptin production (1 μM, 24 hr), the activity at 1 µM came out at 124%. Besides, the activity at 0.001 µM with leptin production (1 nm, 24 hr) stood at 108%. Further, in the assay on leptin production (24 hr), the activity at 0.01 µM was 117% and the activity at 0.1 µM amounted to 118%.
Regarding `Nc1nc(-c2ccc(NC(=O)c3cc([N+](=O)[O-])ccc3Cl)cc2)cs1` [Example 255, N-[4-(2-Aminothiazol-4-yl)phenyl]-(2-chloro-5-nitrophenyl)carboxamide], the activity at 0.1 µM with Rat white adipocytes turned out to be 55%.
Still for that read-out and setting: the result for `COc1cccc(NC(=O)Nc2ccc(-c3ccc(NC(=O)c4cc([N+](=O)[O-])ccc4Cl)cc3)cc2)c1` [Example 247, N-[4-[4-[(3-Methoxyphenyl)aminocarbonylamino]phenyl]phenyl]-(2-chloro-5-nitrophenyl)carboxamide] reads 54%.
With “N-[4-(3-Methanesulfonylaminophenyl)thioazol-2-yl]-(2-chloro-5-nitrophenyl)carboxamide [Example 278]”, the “Rate of Differentiation (%)” value in the assay on Rat white adipocytes is given as 68.6%.
For the compound `CCCCCN(C)c1ccc(-c2ccc(NC(=O)c3cc([N+](=O)[O-])ccc3Cl)cc2)cc1` [Example 215, N-[4-[4-(N-Methyl-N-pentylamino)phenyl]phenyl]-(2-chloro-5-nitrophenyl)carboxamide], in the assay on Rat white adipocytes, the activity at 0.1 µM was 45.2%.
Still for that read-out and setting: the same measure for `CCCN(C)c1ccc(-c2ccc(NC(=O)c3cc([N+](=O)[O-])ccc3Cl)cc2)cc1` [Example 213, N-[4-[4-(N-Methyl-N-propylamino)phenyl]phenyl]-(2-chloro-5-nitrophenyl)carboxamide]: 47.4%; for `CC(=O)Nc1nc(-c2ccc(NC(=O)c3cc([N+](=O)[O-])ccc3Cl)cc2)cs1` [Example 265, N-[4-(2-Acetylaminothiazol-4-yl)phenyl]-(2-chloro-5-nitrophenyl)carboxamide]: 80.8%; for `O=C(NC(=S)Nc1ccc(-c2ccc(NC(=O)c3cc([N+](=O)[O-])ccc3Cl)cc2)cc1)c1ccccc1` [Example 250, N-[4-[4-(Benzoylaminothiocarbonylamino)phenyl]phenyl]-(2-chloro-5-nitrophenyl)carboxamide]: 40.8%.
On the same count and under the same terms, the result for `NC(=O)Nc1ccc(-c2ccc(NC(=O)c3cc([N+](=O)[O-])ccc3Cl)cc2)cc1` [Example 243, N-[4-[4-(Aminocarbonylamino)phenyl]phenyl]-(2-chloro-5-nitrophenyl)carboxamide] reads 41.1%.
Same read-out and setting: the result for `O=C(Nc1cccc(CCO)c1)c1cc([N+](=O)[O-])ccc1Cl` [Example 275, N-[3-(2-Hydroxyethyl)phenyl]-(2-chloro-5-nitrophenyl)carboxamide] reads 47.9%.
